Laboratory results: ChEMBL document CHEMBL1201862, “PubChem BioAssay data set” (2004)
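Five compound concentrations were applied to cells in 96-well plates for 48 hours; endpoints were derived by simple linear interpolation of the resulting dose-response curve. GI50 = concentration required for 50% inhibition of growth.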 The source made the active and inactive calls. Rule as the data show it: active = GI50 up to about 1.1 µM and inactive = higher.

What was measured:
Assay in all cases: inhibition of tumour cell growth, NCI panel, 48 h
HOP-18 = system: HOP-18
KM-20L2 = system: KM-20L2
DLD-1 = system: DLD-1
LXFL 529 = system: LXFL 529
RXF 631 = system: RXF 631
XF498 = system: XF498
SNB-78 = system: SNB-78
DMS-114 = system: DMS-114
BT-549 = system: BT-549

Measured: GI50

CCOc1ccccc1NC(=O)CC1Sc2ccccc2NC1=O (centres undefined)
inactive: HOP-18 53.2 µM | KM-20L2 57.7 µM | DLD-1 75.7 µM | LXFL 529 59.2 µM | RXF 631 58.5 µM | XF498 80.4 µM | SNB-78 > 100 µM

CN1C(c2ccccc2)CC(=Nc2ccccc2)CC1c1ccccc1 (centres undefined)
inactive: KM-20L2 13.3 µM | DLD-1 10.6 µM | LXFL 529 4.46 µM | RXF 631 20.5 µM | SNB-78 15 µM

CN(C)CC1CCC/C1=N/OC(=O)c1ccccc1 (centres undefined)
inactive: HOP-18 > 100 µM | DMS-114 > 100 µM | KM-20L2 > 100 µM | DLD-1 > 100 µM | LXFL 529 > 100 µM | RXF 631 > 100 µM | SNB-78 > 100 µM

Cc1cc(Cl)ccc1NC(=O)CC1SC(Nc2ccccc2Cl)=NC1=O (centres undefined)
inactive: HOP-18 > 100 µM | DMS-114 21.1 µM | KM-20L2 26.8 µM | DLD-1 28.1 µM | LXFL 529 34.9 µM | RXF 631 45.6 µM | XF498 62.1 µM | SNB-78 49.5 µM

CCC1=C(C)/C(=C/c2[nH]c(CBr)c(CC)c2C)N=C1CBr
inactive: HOP-18 11 µM | DMS-114 7.21 µM | KM-20L2 11.4 µM | DLD-1 12.4 µM | LXFL 529 4.43 µM | RXF 631 > 100 µM

N#CNCC(COCc1ccccc1)c1ccccc1 (centres undefined)
inactive: HOP-18 > 100 µM | DMS-114 53.2 µM | KM-20L2 > 100 µM | RXF 631 > 100 µM | XF498 47.6 µM

O=C(CCN(C(=O)O)S(=O)(=O)c1ccc(NC(=O)c2ccccc2)cc1)Nc1ccccc1
inactive: HOP-18 > 17.1 µM | DMS-114 > 56 µM | KM-20L2 > 100 µM | DLD-1 > 79.8 µM | LXFL 529 > 100 µM | RXF 631 > 100 µM | XF498 > 100 µM | SNB-78 > 100 µM

CC1=NN2C(c3ccc([N+](=O)[O-])cc3)=CSC2=NC(C)(C)C1
inactive: HOP-18 > 100 µM | DMS-114 67.8 µM | KM-20L2 > 100 µM | DLD-1 > 100 µM | LXFL 529 > 100 µM | RXF 631 > 100 µM | XF498 > 100 µM | SNB-78 > 100 µM

CCOC(=O)C(Sc1ccccc1)c1c(OC)cc(=O)oc1/C=[N+](/[O-])c1ccc(N(C)C)cc1 (centres undefined)
inactive: HOP-18 17.1 µM | DMS-114 19.4 µM | KM-20L2 31.8 µM | DLD-1 28.1 µM | LXFL 529 14.1 µM | XF498 14.6 µM | SNB-78 27.1 µM

C=C1CCC2C(C)(CO)C(O)CCC2(C)C1CC(O)/C(=C/CO)C(=O)O (centres undefined)
inactive: HOP-18 > 100 µM | DMS-114 > 100 µM | KM-20L2 > 100 µM | DLD-1 > 100 µM | LXFL 529 > 100 µM | RXF 631 > 100 µM | SNB-78 > 100 µM

CC1=C(C(=O)Nc2ccccc2)C(c2ccccc2Cl)C(C(=O)Nc2ccccc2)=C(C)N1
inactive: HOP-18 21.9 µM | KM-20L2 22.2 µM | DLD-1 35.9 µM | LXFL 529 17.6 µM | RXF 631 36.1 µM

CC(C)Cc1ccc(C(C)/C=C2\CCC(CN3CCOCC3)C2=O)cc1 (centres undefined)
inactive: HOP-18 7.87 µM | DMS-114 13.4 µM | BT-549 17.9 µM | KM-20L2 16.3 µM | DLD-1 2.71 µM | LXFL 529 1.64 µM | RXF 631 18.1 µM | XF498 16.4 µM | SNB-78 20.9 µM

Cc1nc2c(=O)n(C)c(=O)nc-2n(-c2ccc(Cl)cc2)c1C
inactive: HOP-18 > 100 µM | DMS-114 > 100 µM | KM-20L2 46.7 µM | DLD-1 85.9 µM | LXFL 529 62.7 µM | RXF 631 > 100 µM | XF498 > 100 µM | SNB-78 > 100 µM

O=C(Nc1ccccc1-c1nn(CN2CCNCC2)c(=S)n(CN2CCNCC2)c1=O)C(F)(F)F
inactive: HOP-18 18.2 µM | DMS-114 19.1 µM | DLD-1 16.5 µM | RXF 631 20.7 µM | SNB-78 23 µM

C[Si](C)(C)[C@@]1([Se]c2ccccc2)CC[C@@H]1C(=O)c1ccccc1
inactive: DMS-114 38.5 µM | KM-20L2 71.8 µM | DLD-1 77.4 µM | LXFL 529 65.6 µM | RXF 631 > 100 µM | SNB-78 > 100 µM

COc1cccc(-n2c3nc(=O)n(C)c(=O)c-3nc3ccccc32)c1
inactive: HOP-18 42.9 µM | DMS-114 5.11 µM | KM-20L2 4.83 µM | DLD-1 25.2 µM | LXFL 529 21.6 µM | RXF 631 19.1 µM | XF498 16.3 µM | SNB-78 29.1 µM
